Source: patent publication US11400084B2 (BioTheryX, Inc., priority 2018, dated 2022)
pIC50: −log10 of the molar value.

Experiments:
GSPT1 = target: T1, GSPT1 (Homo sapiens, UniProt P15170+Q96SW2); assay: Western blot GSPT1 degradation assay in MV-4-11 cells; type: cell-based; conditions: for GSPT1 % Degradation at 1 μM: MV-4-11 cells, 6-8 hours; for reduced levels of GSPT1: comparative study
T1 construct: whole cell protein extracts were separated on 4-12% SDS-polyacrylamide gels; endogenous in cells; host or cells: MV-4-11
T1 sequence (P15170 whole entry): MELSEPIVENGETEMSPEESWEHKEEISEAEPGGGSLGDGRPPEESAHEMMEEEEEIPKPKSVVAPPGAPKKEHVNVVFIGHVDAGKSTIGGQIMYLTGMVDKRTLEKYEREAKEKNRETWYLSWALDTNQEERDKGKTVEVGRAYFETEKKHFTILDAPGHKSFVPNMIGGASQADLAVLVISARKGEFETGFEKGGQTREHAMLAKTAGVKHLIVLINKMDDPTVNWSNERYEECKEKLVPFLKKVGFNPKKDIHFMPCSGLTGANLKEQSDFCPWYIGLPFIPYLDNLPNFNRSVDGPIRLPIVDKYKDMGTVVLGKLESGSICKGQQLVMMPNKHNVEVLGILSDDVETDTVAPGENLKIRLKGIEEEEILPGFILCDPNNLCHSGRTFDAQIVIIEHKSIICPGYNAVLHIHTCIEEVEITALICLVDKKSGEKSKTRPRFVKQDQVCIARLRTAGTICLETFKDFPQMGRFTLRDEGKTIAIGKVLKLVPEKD
T1 sequence (Q96SW2 whole entry): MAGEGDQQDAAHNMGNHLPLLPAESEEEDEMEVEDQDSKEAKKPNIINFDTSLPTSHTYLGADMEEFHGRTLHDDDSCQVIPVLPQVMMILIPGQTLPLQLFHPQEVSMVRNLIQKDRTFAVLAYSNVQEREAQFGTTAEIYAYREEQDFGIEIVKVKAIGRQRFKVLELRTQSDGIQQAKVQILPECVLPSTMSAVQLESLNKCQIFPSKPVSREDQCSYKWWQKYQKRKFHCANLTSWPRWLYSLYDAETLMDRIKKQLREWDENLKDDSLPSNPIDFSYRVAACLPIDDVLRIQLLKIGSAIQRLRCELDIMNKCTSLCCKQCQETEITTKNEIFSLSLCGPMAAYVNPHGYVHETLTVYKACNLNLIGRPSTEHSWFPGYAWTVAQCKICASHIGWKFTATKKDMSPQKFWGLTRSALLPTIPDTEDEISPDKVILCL
T1 sequence (Q16531 whole entry partner): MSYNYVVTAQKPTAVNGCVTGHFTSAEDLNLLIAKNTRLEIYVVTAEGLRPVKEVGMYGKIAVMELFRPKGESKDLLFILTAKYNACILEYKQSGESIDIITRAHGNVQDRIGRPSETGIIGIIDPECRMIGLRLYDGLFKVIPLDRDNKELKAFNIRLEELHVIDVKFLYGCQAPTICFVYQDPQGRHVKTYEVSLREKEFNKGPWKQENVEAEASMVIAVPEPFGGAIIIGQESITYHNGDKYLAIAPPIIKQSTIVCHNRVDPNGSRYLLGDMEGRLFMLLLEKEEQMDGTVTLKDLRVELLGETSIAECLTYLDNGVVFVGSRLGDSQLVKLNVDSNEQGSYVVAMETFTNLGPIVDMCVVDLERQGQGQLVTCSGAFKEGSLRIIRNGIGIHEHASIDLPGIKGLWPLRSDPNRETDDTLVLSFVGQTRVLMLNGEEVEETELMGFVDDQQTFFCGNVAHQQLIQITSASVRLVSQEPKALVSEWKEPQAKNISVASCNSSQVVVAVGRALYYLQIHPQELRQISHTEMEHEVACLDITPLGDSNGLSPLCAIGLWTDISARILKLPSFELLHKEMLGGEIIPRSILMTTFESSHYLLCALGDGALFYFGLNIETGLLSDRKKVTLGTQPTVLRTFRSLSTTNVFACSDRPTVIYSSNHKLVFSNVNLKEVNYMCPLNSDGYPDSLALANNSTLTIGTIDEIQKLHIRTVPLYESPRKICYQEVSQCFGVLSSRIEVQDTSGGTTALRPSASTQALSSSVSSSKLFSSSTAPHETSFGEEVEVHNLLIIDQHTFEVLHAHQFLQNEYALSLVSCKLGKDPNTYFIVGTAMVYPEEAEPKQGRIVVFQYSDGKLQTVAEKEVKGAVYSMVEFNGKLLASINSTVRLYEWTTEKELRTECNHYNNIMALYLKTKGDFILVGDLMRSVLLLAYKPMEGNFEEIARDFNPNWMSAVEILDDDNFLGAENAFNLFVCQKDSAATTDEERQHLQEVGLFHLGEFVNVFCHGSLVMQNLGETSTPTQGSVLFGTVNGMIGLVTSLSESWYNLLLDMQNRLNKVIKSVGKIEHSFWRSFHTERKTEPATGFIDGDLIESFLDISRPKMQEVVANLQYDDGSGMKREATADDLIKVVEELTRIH
Description: (§1) MV-4-11 cells were grown in RPMI 1640 media supplemented with 10% fetal bovine serum, streptomycin and penicillin.
(§2) Cells were cultured at approximately 10^6 cells per mL and incubated in DMSO or the indicated compound for 6-8 hours. Whole cell extracts were prepared using RIPA buffer according to manufacturer's protocol (Pierce). Briefly, 3×10^6 cells were washed once in PBS, the cell pellets were resuspended in RIPA buffer and allowed to incubate for 15 minutes on ice. Cells debris was removed by centrifugation and the cleared whole cell lysates were transferred to new tubes for further analysis.
(§3) For Western blot analysis, whole cell protein extracts were separated on 4-12% SDS-polyacrylamide gels, transferred to nitrocellulose and probed with the indicated primary antibodies. Membranes were subsequently washed and probed with the appropriate IRDye secondary antibodies (LI-COR). The signal was detected using the Odyssey Imaging System (LI-COR).
(§4) The following antibodies were used in these studies: Anti-eRF3/GSPT1: Abcam, ab126090 (Cambridge, Mass.); Anti-Ikaros: Abcam, ab191394 (Cambridge, Mass.); Anti-CK1α: Abcam, ab108296 (Cambridge, Mass.); β-actin (8H10D10) mouse monoclonal antibody: Cell Signaling Technology, #3700 (Danvers, Mass.); IRDye 680RD Goat anti-rabbit antibody: LI-COR, 926-68071 (Lincoln, Nebr.); IRDye 800CW Goat anti-mouse antibody: LI-COR, 926-32210 (Lincoln, Nebr.).
(§5) In each of Tables 1-3, the % degradation values are reported as “A”, “B”, “C”, or “D.” “A” represents a % degradation value of less than 25% (value<25%); “B” represents a % degradation value of equal to or more than 25% and less than 50% (25%≤value<50%); “C” represents a % degradation value of equal to or more than 50% and less than 75% (50%≤value<75%); and “D” represents a % degradation value of equal to or more than 75% (value≥75%).

MOLM-13 cells [1] = assay: MOLM-13 cell viability assay (CellTiter-Glo 2, 3 days, 2500 cells/well); type: cell-based; conditions: Homo sapiens, MOLM-13, 72 h, percentage of DMSO control
Description: MOLM-13 cells were cultured in RPMI 1640 media supplemented with 10% fetal bovine serum, streptomycin and penicillin, and were plated in white walled 96-well plates at 2500 cells/well. Cells were incubated in DMSO (control) or the indicated compound for 3 days at 37° C. and 5% CO2. Following the incubation period, 100 μL of CellTiterGlow2 (CTG2) reagent (CellTiter-Glo®2 Luminescent Cell Viability Assay, Promega (Madison, Wis.)) was added to each well. Following a 10 minutes incubation with shaking, luminescence was measured using the EnVision Multimode plate reader.
The MOLM-13 cell viability values, measured as percentages of the DMSO control, are reported in Table 8 as “A”, “B”, “C”, or “D.” “A” represents a % viability value of less than 40% (value<40%). “B” represents a % viability value of equal to or more than 40% and less than 60% (40%≤value<60%). “C” represents a % viability value of equal to or more than 60% and less than 90% (60%≤value<90%). “D” represents a % viability value of equal or more than 90% (value≥90%).

MV-4-11 cells = assay: Comparative study cell viability, MV-4-11 cells (CTG2, 3 days); type: cell-based; conditions: for IC50 concentration as fold of the IC50 concentration of Compound 1: relative to Compound 1; for pIC50: Homo sapiens, MV4-11, 72 h, 3 days, read-out: reduced cell viability IC50
Description: (§6) Molm-13 and MV-4-11 cells (both leukemia cell lines) were cultured in RPMI 1640 media supplemented with 10% fetal bovine serum, streptomycin and penicillin, and were plated in white walled 96-well plates at 20,000 cells/well. THLE-2 cells (T-antigen immortalized human liver epithelial cells) were cultured using BEGM Bullet kit (Lonza CC-3170) supplemented with 10% fetal bovine serum, streptomycin and penicillin, and were plated in white walled 96-well plates 5000 cells/well. NHLF (normal human lung fibroblast) cells were cultured in DMEM media supplemented with 10% fetal bovine serum, streptomycin and penicillin, and were plated in white walled 96-well plates at 5000 cells/well. Cells were incubated in DMSO (control) or the indicated compounds for 3 days at 37° C. and 5% CO2. Following the incubation period, 100 μL of CellTiterGlow2 (CTG2) reagent (CellTiter-Glo®2 Luminescent Cell Viability Assay, Promega (Madison, Wis.)) was added to each well. Following a 10 minutes incubation with shaking, luminescence was measured using the Victor Wallac Luminometer or the Envision 2105 multimode plate reader.

CK1α = target: T2, CK1α (Homo sapiens, UniProt P48729+Q96SW2); assay: Western blot CK1α degradation assay in MV-4-11 cells; type: cell-based; conditions: 6-8 hours
T2 construct: endogenous in cells; host or cells: MV-4-11
T2 sequence (P48729 whole entry): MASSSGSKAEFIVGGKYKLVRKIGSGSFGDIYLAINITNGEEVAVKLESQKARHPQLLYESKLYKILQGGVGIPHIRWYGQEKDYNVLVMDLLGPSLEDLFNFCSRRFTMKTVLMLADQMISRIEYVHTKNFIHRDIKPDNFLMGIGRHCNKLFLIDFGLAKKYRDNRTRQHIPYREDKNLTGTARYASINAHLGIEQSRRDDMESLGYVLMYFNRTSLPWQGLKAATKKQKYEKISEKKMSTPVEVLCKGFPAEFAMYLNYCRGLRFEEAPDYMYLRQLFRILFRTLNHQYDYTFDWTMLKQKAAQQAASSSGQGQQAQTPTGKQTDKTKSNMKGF
T2 sequence (Q96SW2 whole entry): as the sequence (Q96SW2 whole entry) above
T2 sequence (Q16531 whole entry partner): as the sequence (Q16531 whole entry partner) above
Description: as §1, §2, §3, §4, §5

TNFα = assay: TNF-α inhibition assay, LPS-induced PBMCs or CD14+ monocytes, Meso Scale; type: cell-based; conditions: 100 ng/mL LPS 18-24 h
Description: (§7) Either frozen primary blood mononuclear cells (PBMCs) or frozen CD14+ mobilized peripheral blood monocytes were purchased from AllCells (PB003F, Normal Peripheral Blood MNC (Alameda, Calif.)). Cells were quick thawed, washed 1-time with RPMI-1640 (10% FBS/1% Pen-Strep) and plated in 96 well plates at 200,000 cells per well. Cells were pretreated with DMSO only or with the indicated compound for 1 h and then induced with 100 ng/mL lipopolysaccharide (LPS) for 18-24 h. The supernatant was analyzed for IL-1β, IL-6, and TNFα, using Meso Scale assay according to manufacturer's protocol. The negative control wells were treated with DMSO.

THLE-2 cells = assay: Comparative study cell viability, THLE-2 cells (CTG2, 3 days); type: cell-based, human; conditions: for IC50 concentration as fold of the IC50 concentration of Compound 1: relative to Compound 1; for pIC50: Homo sapiens, 72 h, 3 days, read-out: reduced cell viability IC50
Description: as §6

IL-2 = IL-2 fold-change assay, anti-CD3 stimulated PBMCs, Mesoscale; type: cell-based; conditions: Homo sapiens, PBMC, 24 h, fold difference from the DMSO control
Description: For the IL-2 analysis, 96 well plates were precoated with 1 μg/mL anti-human CD3 antibody (OKT3, eBioscience Inc., San Diego, Calif.). After washing with PBS, the indicated compound was added (50 μL/well) followed by PBMCs diluted at 3-4 million cells/mL (150 μL/well). Plates were incubated for 24 h and the supernatants collected for Mesoscale IL-2 analysis. IL-2 activity is measured as fold difference from the DMSO control.
In Table 7, the fold-change values are reported as “A”, “B”, “C”, or “D”. “A” represents a fold-change value of equal to or less than 1 (value≤1); “B” represents a fold-change value of more than 1 and equal to or less than 2 (1<value≤2); “C” represents a fold-change value of more than 2 and equal to or less than 3 (2<value≤3); and “D” represents a fold-change value of more than 3 (value>3).

IL-1β = IL-1β inhibition assay, LPS-induced PBMCs or CD14+ monocytes, Meso Scale; type: cell-based; conditions: 100 ng/mL LPS 18-24 h
Description: as §7

IKAROS = target: T3, IKAROS (Homo sapiens, UniProt Q13422+Q96SW2); assay: Western blot IKAROS degradation assay in MV-4-11 cells; type: cell-based; conditions: 6-8 hours
T3 construct: endogenous in cells; host or cells: MV-4-11
T3 sequence (Q13422 whole entry): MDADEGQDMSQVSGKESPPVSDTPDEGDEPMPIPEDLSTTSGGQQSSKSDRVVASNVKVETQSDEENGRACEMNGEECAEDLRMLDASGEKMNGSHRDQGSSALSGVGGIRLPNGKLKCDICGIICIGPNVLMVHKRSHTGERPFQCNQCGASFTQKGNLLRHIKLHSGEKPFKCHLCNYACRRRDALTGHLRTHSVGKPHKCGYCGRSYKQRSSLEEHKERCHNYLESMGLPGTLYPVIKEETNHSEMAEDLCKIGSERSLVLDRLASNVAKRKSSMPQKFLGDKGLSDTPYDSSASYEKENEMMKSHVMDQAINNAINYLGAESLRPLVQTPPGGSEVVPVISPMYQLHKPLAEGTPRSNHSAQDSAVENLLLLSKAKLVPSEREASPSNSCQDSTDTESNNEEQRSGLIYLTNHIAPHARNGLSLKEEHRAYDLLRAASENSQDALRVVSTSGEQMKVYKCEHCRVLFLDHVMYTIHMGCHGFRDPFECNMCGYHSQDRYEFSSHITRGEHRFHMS
T3 sequence (Q96SW2 whole entry): as the sequence (Q96SW2 whole entry) above
T3 sequence (Q16531 whole entry partner): as the sequence (Q16531 whole entry partner) above
Description: as §1, §2, §3, §4, §5

NHLF cells = assay: Comparative study cell viability, NHLF cells (CTG2, 3 days); type: cell-based; conditions: Homo sapiens, 72 h, read-out: reduced cell viability IC50
Description: as §6

PBMCs = assay: Comparative study cell viability, LPS-induced PBMCs (CTG); type: cell-based; conditions: PBMC, LPS 18-24 hr, read-out: reduced cell viability IC50
Description: Frozen […] blood mononuclear cells (PBMCs) were purchased from AllCells. Cells were quick thawed, washed with RPMI-1640/10% FBS/1% Penicillin/1% Streptomycin and plated in 96 well plates at 200,000 cells/well. Cells were pretreated with DMSO or the indicated compound for 1 hr and then induced with 100 ng/mL lipopolysaccharide (LPS) for 18-24 hr. Following the incubation period, 100 μL of CTG reagent was added to each well. Plates were incubated on the shaker at RT for 2 min. Following a 10 min incubation without shaking, luminescence was measured using the Envision 2105 multimode plate reader.

MOLM-13 cells [2] = assay: Comparative study cell viability, Molm-13 cells (CTG2, 3 days); type: cell-based; conditions: Homo sapiens, 72 h, read-out: reduced cell viability IC50
Description: as §6

| IC50 concentration as fold of the IC50 concentration of Compound 1 (MV-4-11 cells) | reduced levels of GSPT1 (GSPT1; 0.1 μM) | reduced levels of GSPT1 (GSPT1; 1 μM) | pIC50 (MV-4-11 cells) | pIC50 (MOLM-13 cells [2]) | SMILES | GSPT1 % Degradation at 1 μM (GSPT1; 1 μM) | viability at 1 µM (MOLM-13 cells [1]) | CK1α % Degradation at 1 μM (CK1α) | inhibition at 1 µM (TNFα) | IC50 concentration as fold of the IC50 concentration of Compound 1 (THLE-2 cells) | fold induction at 1 µM (IL-2) | inhibition at 1 µM (IL-1β) | IKAROS % Degradation at 1 μM (IKAROS) | pIC50 (NHLF cells) | pIC50 (PBMCs) | pIC50 (THLE-2 cells) |
| --- | --- | --- | --- | --- | --- | --- | --- | --- | --- | --- | --- | --- | --- | --- | --- | --- |
| about 0.5 fold |  |  |  |  | Cc1ccc(NCC(=O)NCc2ccc3c(c2)CN(C2CCC(=O)NC2=O)C3=O)cc1N(C)C (centres unmarked) [Compound 18, 2-((3-(dimethylamino)-4-methylphenyl)amino)-N-((2-(2,6-dioxopiperidin-3-yl)-1-oxoisoindolin-5-yl)methyl)acetamide] | D (a % degradation value of equal to or more than 75% (value≥75%)) | > 90% | B (a % degradation value of equal to or more than 25% and less than 50% (25%≤value<50%)) | 30 to 50% | about 1 fold | ≤ 1 | 30 to 50% |  |  |  |  |
| about 1 fold |  |  |  |  | CC(C)(C)c1ccc(NCC(=O)NCc2ccc3c(c2)CN(C2CCC(=O)NC2=O)C3=O)cc1 (centres unmarked) [Compound 17, 2-((4-(tert-butyl)phenyl)amino)-N-((2-(2,6-dioxopiperidin-3-yl)-1-oxoisoindolin-5-yl)methyl)acetamide] | D (a % degradation value of equal to or more than 75% (value≥75%)) | 60 to 90% | C (a % degradation value of equal to or more than 50% and less than 75% (50%≤value<75%)) |  | about 1.5 fold |  |  | C (a % degradation value of equal to or more than 50% and less than 75% (50%≤value<75%)) |  |  |  |
|  | 82% | 98% | 8.73 | 9.19 | Cc1ccc(NC(=O)NCc2ccc3c(c2)CN(C2CCC(=O)NC2=O)C3=O)cc1Cl (centres unmarked) [Compound A, reference compound] |  |  |  |  |  |  |  |  | 7.50 | 8.22 | 8.21 |
|  | 92% | 93% | 7.71 | 7.13 | Cc1ccc(NCC(=O)NCc2ccc3c(c2)CN(C2CCC(=O)NC2=O)C3=O)cc1Cl (centres unmarked) [Compound 1, 2-((3-Chloro-4-methylphenyl)amino)-N-((2-(2,6-dioxopiperidin-3-yl)-1-oxoisoindolin-5-yl)methyl)acetamide] | D (a % degradation value of equal to or more than 75% (value≥75%)) | > 90% | B (a % degradation value of equal to or more than 25% and less than 50% (25%≤value<50%)) |  |  |  |  | D (a % degradation value of equal to or more than 75% (value≥75%)) | < 5.00 | < 5.00 | < 5.00 |
